A short description of data set [1]: Metabolic stability in rat hepatocytes assessed as half life. The class given is ADME, cell-based, Hepatocyte.
In data set [2] the target is T1, Tryptophan 5-hydroxylase 1 (Homo sapiens) (UniProt P17752).
T1 sequence (whole entry): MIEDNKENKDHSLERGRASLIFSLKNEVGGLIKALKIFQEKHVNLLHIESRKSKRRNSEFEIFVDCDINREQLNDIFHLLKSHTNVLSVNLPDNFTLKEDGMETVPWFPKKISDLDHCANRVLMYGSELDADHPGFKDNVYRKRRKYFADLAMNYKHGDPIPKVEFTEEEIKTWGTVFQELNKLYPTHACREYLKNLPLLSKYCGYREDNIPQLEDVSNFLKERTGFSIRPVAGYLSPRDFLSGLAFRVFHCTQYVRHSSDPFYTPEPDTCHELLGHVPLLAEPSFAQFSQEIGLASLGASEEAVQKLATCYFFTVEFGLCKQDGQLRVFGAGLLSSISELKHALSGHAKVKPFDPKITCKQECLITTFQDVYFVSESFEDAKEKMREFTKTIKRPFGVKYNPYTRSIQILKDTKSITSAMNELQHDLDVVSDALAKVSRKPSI
Briefly: Binding affinity to […] (unknown origin) assessed as dissociation rate constant by surface plasmon resonance analysis. In general terms: Surface plasmon resonance follows binding to a sensor surface in real time, without labels.

A short description of data set [3]: Mutagenicity in Salmonella typhimurium TA100 in presence or absence of rat liver S9 fraction by Ames test. The following applies: salmonella enterica subsp. enterica serovar typhimurium. The class given is toxicity. Background: The Ames test detects mutagens through reverse mutation in bacteria.
Data set [4] concerns the target ATP-dependent translocase ABCB1 (Homo sapiens, UniProt P08183). Briefly: Inhibition of P-gp in human Caco-2 cells seeded in polyethylene membranes assessed as permeation in presence or absence of digoxin measured for 2 hrs by LC-MS/MS analysis based transporter assay. The class given is cell-based. In general terms: Caco-2 cells form a polarised layer with tight junctions and transporters.

Data set [5] can be described thus: Cmax in CD-1 (ICR) mouse at 50 mg/kg, po measured upto 1440 mins by LC-MS/MS analysis. As to conditions: in vivo. The format is ADME, organism-based. Also noted: dose 50 mg/kg, time < 1440 min, route po.
Data set [6] in a line: Tmax in CD-1 (ICR) mouse at 50 mg/kg, po measured upto 1440 mins by LC-MS/MS analysis. The class given is ADME, organism-based. The following applies: in vivo.
Data set [7] in a line: AUC (0 to infinitive) in CD-1 (ICR) mouse at 50 mg/kg, po measured upto 1440 mins by LC-MS/MS analysis. The class given is ADME, organism-based. Also noted: time < 1440 min, dose 50 mg/kg, route po. As to conditions: in vivo.
Data set [8] can be described thus: AUMCExtra in CD-1 (ICR) mouse at 50 mg/kg, po measured upto 1440 mins by LC-MS/MS analysis. The format is ADME, organism-based. The following applies: in vivo, 24 h.
Data set [9] is described as follows: Oral bioavailability in CD-1 (ICR) mouse at 50 mg/kg measured upto 1440 mins by LC-MS/MS analysis. The class given is ADME, organism-based. The following applies: in vivo.
The nature of data set [10]: Drug uptake in CD-1 (ICR) mouse lung at 50 mg/kg measured 2 hrs by LC-MS/MS analysis. The format is ADME, organism-based. The following applies: read-out: Drug uptake.
A short description of data set [11]: MRT (0 to last) in Sprague-Dawley rat at 10 mg/kg, iv measured upto 1440 mins by LC-MS/MS analysis. The class given is ADME, organism-based. As to conditions: in vivo.
The nature of data set [12]: AUC (0 to last) in Sprague-Dawley rat at 20 mg/kg, po measured upto 1440 mins by LC-MS/MS analysis. The format is ADME, organism-based. Also noted: time < 1440 min, dose 20 mg/kg, route po. The following applies: in vivo.
Data set [13] is described as follows: AUCExtra in Sprague-Dawley rat at 20 mg/kg, po measured upto 1440 mins by LC-MS/MS analysis. The format is ADME, organism-based. As to conditions: in vivo, 24 h.
Data set [14] can be described thus: Drug uptake in Sprague-Dawley rat brain at 50 mg/kg, po measured at 2 hrs by LC-MS/MS analysis. As to conditions: read-out: Drug uptake. The class given is ADME, organism-based.
For another data set, the system named is Mus musculus. Briefly: Effect on C57BL/6N mouse assessed as brain serotonin turnover measuring 5-HIAA/5-HT ratio at 1.5 to 50 mg/kg, po bid treated for 6 to 7 days. The class given is functional, organism-based. As to conditions: dose 1.5-50 mg/kg, time 6-7 day.

The results in this text go back to ChEMBL document CHEMBL5370659 (J Med Chem, 2023).

pIC50: −log10 of the molar value. Activity calls are given as the source filed them. The calls are words filed in the database; no cut-off is given here.

Chain of ATP-dependent translocase ABCB1 (P08183 whole entry): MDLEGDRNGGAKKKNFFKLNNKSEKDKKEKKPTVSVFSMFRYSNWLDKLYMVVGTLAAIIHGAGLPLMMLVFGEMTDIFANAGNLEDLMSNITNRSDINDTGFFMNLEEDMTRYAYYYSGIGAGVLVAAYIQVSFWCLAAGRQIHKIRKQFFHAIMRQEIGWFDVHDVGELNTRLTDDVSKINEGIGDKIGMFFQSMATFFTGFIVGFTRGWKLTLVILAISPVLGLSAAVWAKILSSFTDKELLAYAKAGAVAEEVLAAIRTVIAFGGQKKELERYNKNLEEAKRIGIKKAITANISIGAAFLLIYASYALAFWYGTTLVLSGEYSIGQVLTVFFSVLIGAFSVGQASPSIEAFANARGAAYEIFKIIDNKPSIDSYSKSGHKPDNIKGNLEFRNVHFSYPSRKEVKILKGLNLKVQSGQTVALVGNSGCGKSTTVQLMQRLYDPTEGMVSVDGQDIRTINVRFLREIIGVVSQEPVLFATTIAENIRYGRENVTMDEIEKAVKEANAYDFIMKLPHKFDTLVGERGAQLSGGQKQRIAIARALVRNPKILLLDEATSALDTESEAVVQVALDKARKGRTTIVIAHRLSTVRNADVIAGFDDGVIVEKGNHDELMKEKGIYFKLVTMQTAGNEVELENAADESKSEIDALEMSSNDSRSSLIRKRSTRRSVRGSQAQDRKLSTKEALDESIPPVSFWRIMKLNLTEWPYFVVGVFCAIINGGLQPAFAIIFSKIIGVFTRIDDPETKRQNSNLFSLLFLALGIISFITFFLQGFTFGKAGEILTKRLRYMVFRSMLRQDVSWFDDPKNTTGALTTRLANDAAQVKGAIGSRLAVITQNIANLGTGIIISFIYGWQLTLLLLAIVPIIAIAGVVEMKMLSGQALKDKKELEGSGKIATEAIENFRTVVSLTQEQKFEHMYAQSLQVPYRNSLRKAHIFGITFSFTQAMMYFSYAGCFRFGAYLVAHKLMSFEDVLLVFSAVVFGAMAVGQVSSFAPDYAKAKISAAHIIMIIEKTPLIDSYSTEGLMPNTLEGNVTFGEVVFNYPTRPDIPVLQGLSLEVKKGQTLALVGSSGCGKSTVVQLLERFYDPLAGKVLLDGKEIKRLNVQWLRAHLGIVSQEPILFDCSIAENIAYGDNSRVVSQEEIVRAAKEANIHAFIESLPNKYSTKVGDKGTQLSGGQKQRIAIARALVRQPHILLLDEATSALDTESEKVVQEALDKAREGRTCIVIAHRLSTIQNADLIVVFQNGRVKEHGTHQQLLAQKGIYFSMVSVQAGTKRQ

As to `CCn1c(=O)[nH]c(=O)c2c1nc(Cc1cn3cc(C)sc3n1)n2CC1COC1`, in data set [1], the half-life was over 145 min. Moreover, in data set [2], the Kdiss was found to be 0.007 s⁻¹. The Activity result in [3] is recorded as “Non-Toxic”. Further, the pIC50 in data set [4] is under 4.00. This molecule also showed a peak concentration (Cmax) in data set [5] of 6950 ng/mL. The Tmax in data set [6] turned out to be 20 min. The AUC(0-inf) in data set [7] stood at 8580 ng·h/mL. The molecule also gave an AUMC in data set [8] of 4.85%. The bioavailability in data set [9] is 41.3%. Besides, the results for the concentration at 2 h in data set [10] and in data set [14] were 168 ng/g and 18 ng/g, respectively. Besides, the MRT last at 24 h in [11] worked out at 36.6 min. In data set [12], this molecule returned an AUC(0-t) at 24 h of 3300 ng·h/mL. Also, the “%AUCextra” value in data set [13] stood at 0.84%. For the same molecule, in the data set on Mus musculus, the result was inactive.

What is called half-life is how long it takes for the measured level to halve. For orientation: pIC50 means the negative decadic logarithm of the IC50, by convention in mol/L. One may read the Cmax as the peak of the concentration-time curve. Usually Tmax stands for the time at which the peak concentration occurs. As usually defined, the AUC(0-inf) is the area under the concentration-time curve extrapolated to infinity. Read a high AUC(0-inf) as more exposure. Usually bioavailability stands for dose-corrected exposure relative to a reference, in per cent. Lower therefore signals poor availability. As usually defined, the MRT last is the average time that molecules of a dose stay in the body. Broadly, the AUC(0-t) is the area under the concentration-time curve up to a stated or last time point. A lower AUC(0-t) goes with less exposure.
